Laboratory results from the kinase profiling compilation of Christmann-Franck et al. (2016).

Key:
Test in all cases: KINOMEscan competition binding
Conditions in all cases: compound 10.0 µM
ADCK3 (human) = ADCK3 (human) (UniProt Q8NI60)
AURKC (human) = AURKC (human) (UniProt Q9UQB9)
BMPR1B (human) = BMPR1B (human) (UniProt O00238)
BRSK1 (human) = BRSK1 (human) (UniProt Q8TDC3)
CAMKK1 (human) = CAMKK1 (human) (UniProt Q8N5S9)
CDC42BPB (human) = CDC42BPB (human) (UniProt Q9Y5S2)
CDK17 (human) = CDK17 (human) (UniProt Q00537)
CDK18 (human) = CDK18 (human) (UniProt Q07002)
CDK4 CCND1 (human) = CDK4 CCND1 (human) (UniProt P11802+P24385)
CSK (human) = CSK (human) (UniProt P41240)
CaMK1 (human) = CaMK1 (human) (UniProt Q14012)
EPHB4 (human) = EPHB4 (human) (UniProt P54760)
FGFR4 (human) = FGFR4 (human) (UniProt P22455)
GRK4 (human) = GRK4 (human) (UniProt P32298)
ICK (human) = ICK (human) (UniProt Q9UPZ9)
LTK (human) = LTK (human) (UniProt P29376)
MAP3K2 (human) = MAP3K2 (human) (UniProt Q9Y2U5)
MAP4K1 (human) = MAP4K1 (human) (UniProt Q92918)
MAPK10 (human) = MAPK10 (human) (UniProt P53779)
MAPK15 (human) = MAPK15 (human) (UniProt Q8TD08)
MAPK3 (human) = MAPK3 (human) (UniProt P27361)
MARK1 (human) = MARK1 (human) (UniProt Q9P0L2)
[1] = tested on: MET (human), P08581 [Y1235D]
MYO3A (human) = MYO3A (human) (UniProt Q8NEV4)
NEK11 (human) = NEK11 (human) (UniProt Q8NG66)
NEK7 (human) = NEK7 (human) (UniProt Q8TDX7)
NTRK1 (human) = NTRK1 (human) (UniProt P04629)
PAK6 (human) = PAK6 (human) (UniProt Q9NQU5)
PKN3 (M.tuberculosis) = PKN3 (M.tuberculosis) (UniProt Q6P5Z2)
PRKD2 (human) = PRKD2 (human) (UniProt Q9BZL6)
PRKG1 (human) = PRKG1 (human) (UniProt Q13976)
[2] = tested on: RET (human), P07949 [M918T]
Sequence of RET (human), P07949 [M918T] (P07949 whole entry M918T, looked up): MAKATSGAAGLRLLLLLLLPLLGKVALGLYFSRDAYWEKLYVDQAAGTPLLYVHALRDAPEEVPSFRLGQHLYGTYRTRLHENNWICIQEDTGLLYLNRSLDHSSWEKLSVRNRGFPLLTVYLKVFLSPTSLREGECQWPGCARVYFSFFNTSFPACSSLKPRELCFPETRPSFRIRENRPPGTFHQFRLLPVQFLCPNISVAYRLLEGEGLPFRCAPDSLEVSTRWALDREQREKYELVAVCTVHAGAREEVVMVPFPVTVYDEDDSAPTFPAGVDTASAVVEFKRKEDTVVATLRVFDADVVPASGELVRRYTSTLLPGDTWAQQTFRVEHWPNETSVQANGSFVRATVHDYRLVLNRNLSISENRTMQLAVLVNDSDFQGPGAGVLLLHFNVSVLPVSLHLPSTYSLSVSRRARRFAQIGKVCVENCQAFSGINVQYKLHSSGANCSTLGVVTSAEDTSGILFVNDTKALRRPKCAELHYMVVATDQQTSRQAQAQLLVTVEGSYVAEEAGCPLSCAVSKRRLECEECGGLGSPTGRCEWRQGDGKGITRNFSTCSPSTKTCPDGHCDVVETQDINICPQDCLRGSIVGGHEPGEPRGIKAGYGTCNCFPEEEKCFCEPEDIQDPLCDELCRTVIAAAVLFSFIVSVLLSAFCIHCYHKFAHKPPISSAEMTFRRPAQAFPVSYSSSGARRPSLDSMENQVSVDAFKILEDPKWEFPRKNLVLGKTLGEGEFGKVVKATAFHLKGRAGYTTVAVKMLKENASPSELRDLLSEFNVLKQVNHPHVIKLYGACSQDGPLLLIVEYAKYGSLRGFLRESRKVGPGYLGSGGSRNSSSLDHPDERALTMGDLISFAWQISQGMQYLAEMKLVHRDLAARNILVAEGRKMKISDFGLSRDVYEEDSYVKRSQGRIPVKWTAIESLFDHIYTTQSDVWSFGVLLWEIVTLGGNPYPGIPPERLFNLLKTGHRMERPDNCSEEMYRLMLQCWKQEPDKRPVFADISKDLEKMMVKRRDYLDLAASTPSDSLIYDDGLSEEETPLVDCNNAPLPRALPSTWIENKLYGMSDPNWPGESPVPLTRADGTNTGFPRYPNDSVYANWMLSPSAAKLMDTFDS

ROCK1 (human) = ROCK1 (human) (UniProt Q13464)
RPS6KA1 KD1 (human) = RPS6KA1 KD1 (human) (UniProt Q15418)
Sequence of RPS6KA1 KD1 (human) (Q15418 whole entry, looked up): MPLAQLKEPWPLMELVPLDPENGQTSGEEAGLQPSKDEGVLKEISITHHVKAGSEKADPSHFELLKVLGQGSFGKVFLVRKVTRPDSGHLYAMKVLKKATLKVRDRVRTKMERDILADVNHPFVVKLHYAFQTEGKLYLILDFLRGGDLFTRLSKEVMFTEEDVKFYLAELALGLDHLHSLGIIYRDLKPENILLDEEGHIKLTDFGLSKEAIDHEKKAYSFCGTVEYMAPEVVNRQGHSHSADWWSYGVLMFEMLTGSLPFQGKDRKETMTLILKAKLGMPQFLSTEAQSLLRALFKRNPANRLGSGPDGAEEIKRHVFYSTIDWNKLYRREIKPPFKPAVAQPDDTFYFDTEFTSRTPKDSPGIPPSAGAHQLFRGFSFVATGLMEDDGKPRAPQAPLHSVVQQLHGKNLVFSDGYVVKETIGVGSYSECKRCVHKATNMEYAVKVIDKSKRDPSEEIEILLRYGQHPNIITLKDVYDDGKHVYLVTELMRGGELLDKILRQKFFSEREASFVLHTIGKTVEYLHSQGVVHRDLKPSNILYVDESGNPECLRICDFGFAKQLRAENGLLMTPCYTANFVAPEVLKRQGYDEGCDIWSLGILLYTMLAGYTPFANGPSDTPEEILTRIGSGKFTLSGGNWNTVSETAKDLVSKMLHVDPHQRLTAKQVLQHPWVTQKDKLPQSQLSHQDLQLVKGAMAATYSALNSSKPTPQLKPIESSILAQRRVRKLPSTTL

RPS6KA5 KD1 (human) = RPS6KA5 KD1 (human) (UniProt O75582)
SRPK1 (human) = SRPK1 (human) (UniProt Q96SB4)
TBK1 (human) = TBK1 (human) (UniProt Q9UHD2)
Sequence of TBK1 (human) (Q9UHD2 whole entry, looked up): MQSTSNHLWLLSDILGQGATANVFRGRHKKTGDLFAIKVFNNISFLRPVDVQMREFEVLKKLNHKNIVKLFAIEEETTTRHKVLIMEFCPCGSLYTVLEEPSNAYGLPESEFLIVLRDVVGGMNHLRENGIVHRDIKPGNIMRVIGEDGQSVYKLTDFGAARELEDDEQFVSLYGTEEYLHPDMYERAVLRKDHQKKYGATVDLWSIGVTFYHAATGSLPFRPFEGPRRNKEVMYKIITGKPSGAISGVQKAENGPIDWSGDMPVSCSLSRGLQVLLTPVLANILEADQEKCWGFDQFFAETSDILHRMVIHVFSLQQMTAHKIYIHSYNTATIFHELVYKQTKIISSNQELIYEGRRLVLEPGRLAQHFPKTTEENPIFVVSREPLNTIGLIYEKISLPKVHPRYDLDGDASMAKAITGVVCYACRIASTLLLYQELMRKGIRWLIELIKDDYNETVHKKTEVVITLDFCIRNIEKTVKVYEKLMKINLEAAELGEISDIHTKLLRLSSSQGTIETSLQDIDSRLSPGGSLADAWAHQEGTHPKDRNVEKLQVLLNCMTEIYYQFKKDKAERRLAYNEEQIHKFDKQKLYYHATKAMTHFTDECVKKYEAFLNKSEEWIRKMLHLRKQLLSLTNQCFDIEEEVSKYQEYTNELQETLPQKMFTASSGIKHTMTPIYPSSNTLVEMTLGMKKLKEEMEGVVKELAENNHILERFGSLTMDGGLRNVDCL

TEK (human) = TEK (human) (UniProt Q02763)
TLK1 (human) = TLK1 (human) (UniProt Q9UKI8)
Sequence of TLK1 (human) (Q9UKI8 whole entry, looked up): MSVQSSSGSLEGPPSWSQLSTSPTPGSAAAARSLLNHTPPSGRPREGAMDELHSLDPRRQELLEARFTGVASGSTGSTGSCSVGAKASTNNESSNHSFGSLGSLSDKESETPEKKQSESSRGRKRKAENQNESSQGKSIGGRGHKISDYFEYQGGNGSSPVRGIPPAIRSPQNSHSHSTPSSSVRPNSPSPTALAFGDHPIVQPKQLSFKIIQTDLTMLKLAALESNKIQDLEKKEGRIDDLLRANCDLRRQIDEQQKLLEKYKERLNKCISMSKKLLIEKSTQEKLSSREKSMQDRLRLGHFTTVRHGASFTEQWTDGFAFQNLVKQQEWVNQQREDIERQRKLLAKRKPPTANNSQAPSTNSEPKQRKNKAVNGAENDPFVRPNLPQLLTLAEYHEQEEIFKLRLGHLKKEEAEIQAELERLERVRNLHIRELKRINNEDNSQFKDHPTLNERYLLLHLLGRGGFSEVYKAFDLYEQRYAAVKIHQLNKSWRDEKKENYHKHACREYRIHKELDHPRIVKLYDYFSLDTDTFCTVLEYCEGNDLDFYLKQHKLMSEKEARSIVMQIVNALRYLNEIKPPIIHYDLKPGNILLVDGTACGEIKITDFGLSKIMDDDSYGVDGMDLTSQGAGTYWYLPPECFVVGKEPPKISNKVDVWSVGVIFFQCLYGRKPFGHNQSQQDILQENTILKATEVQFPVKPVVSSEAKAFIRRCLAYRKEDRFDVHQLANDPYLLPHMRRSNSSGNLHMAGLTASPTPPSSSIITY

TNK1 (human) = TNK1 (human) (UniProt Q13470)

Sequence of CDC42BPB (human) (Q9Y5S2 whole entry, looked up): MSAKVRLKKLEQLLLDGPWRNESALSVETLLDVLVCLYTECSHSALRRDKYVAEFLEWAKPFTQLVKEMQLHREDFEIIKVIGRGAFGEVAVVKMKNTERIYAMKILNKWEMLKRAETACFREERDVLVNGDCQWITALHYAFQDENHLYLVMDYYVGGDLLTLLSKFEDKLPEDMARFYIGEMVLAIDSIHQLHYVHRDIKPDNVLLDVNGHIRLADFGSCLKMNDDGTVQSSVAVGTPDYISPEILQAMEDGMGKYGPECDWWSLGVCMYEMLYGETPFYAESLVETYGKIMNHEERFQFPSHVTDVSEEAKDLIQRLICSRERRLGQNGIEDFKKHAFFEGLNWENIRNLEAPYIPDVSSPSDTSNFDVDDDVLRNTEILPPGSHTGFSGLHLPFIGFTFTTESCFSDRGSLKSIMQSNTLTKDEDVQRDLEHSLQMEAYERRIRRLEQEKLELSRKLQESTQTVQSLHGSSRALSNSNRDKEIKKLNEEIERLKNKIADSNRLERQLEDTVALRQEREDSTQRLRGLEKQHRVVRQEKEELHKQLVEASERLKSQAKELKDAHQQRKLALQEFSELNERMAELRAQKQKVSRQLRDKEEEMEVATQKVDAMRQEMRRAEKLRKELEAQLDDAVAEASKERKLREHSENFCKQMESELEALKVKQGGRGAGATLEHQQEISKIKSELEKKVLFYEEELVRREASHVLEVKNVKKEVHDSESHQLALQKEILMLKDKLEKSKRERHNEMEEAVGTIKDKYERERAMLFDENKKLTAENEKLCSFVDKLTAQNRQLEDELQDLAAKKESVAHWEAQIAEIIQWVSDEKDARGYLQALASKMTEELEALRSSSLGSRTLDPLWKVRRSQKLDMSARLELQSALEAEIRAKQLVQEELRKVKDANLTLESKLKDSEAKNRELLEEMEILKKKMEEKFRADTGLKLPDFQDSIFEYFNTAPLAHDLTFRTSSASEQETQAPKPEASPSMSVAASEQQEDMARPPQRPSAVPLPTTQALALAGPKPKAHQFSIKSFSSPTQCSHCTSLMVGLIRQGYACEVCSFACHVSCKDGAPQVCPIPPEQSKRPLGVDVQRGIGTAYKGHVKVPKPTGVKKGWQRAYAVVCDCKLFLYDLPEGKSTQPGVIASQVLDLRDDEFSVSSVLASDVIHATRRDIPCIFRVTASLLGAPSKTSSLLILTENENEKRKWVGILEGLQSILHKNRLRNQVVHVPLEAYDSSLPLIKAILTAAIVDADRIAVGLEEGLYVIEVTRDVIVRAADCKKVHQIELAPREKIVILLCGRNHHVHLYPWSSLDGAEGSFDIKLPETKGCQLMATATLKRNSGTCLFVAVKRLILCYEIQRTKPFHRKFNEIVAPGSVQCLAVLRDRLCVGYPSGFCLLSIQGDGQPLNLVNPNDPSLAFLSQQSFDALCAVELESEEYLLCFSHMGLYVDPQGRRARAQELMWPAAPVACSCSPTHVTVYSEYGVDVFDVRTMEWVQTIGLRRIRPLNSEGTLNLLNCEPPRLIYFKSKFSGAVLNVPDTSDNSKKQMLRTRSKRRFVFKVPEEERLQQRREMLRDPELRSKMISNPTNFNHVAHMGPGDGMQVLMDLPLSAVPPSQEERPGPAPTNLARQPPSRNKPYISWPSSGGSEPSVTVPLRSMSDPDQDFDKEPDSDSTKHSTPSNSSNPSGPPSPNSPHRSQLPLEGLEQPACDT

SMILES	kinase still bound, per cent of control (ADCK3 (human)) [%]	kinase still bound, per cent of control (AURKC (human)) [%]	kinase still bound, per cent of control (BMPR1B (human)) [%]	kinase still bound, per cent of control (BRSK1 (human)) [%]	kinase still bound, per cent of control (CAMKK1 (human)) [%]	kinase still bound, per cent of control (CDC42BPB (human)) [%]	kinase still bound, per cent of control (CDK17 (human)) [%]	kinase still bound, per cent of control (CDK18 (human)) [%]	kinase still bound, per cent of control (CDK4 CCND1 (human)) [%]	kinase still bound, per cent of control (CSK (human)) [%]	kinase still bound, per cent of control (CaMK1 (human)) [%]	kinase still bound, per cent of control (EPHB4 (human)) [%]	kinase still bound, per cent of control (FGFR4 (human)) [%]	kinase still bound, per cent of control (GRK4 (human)) [%]	kinase still bound, per cent of control (ICK (human)) [%]	kinase still bound, per cent of control (LTK (human)) [%]	kinase still bound, per cent of control (MAP3K2 (human)) [%]	kinase still bound, per cent of control (MAP4K1 (human)) [%]	kinase still bound, per cent of control (MAPK10 (human)) [%]	kinase still bound, per cent of control (MAPK15 (human)) [%]	other results
COc1cc(C(=O)N2CCC(N3CCN(C)CC3)CC2)ccc1Nc1ncc2c(n1)N(C)c1ccccc1C(=O)N2C	71	50	100	81	73	100	83	100	100	90	55	100	28	86	90	32	97	100	77	100	kinase still bound, per cent of control (MAPK3 (human)): 100%; kinase still bound, per cent of control (MARK1 (human)): 87%; kinase still bound, per cent of control [1]: 100%; kinase still bound, per cent of control (MYO3A (human)): 94%; kinase still bound, per cent of control (NEK11 (human)): 100%; kinase still bound, per cent of control (NEK7 (human)): 100%; kinase still bound, per cent of control (NTRK1 (human)): 69%; kinase still bound, per cent of control (PAK6 (human)): 98%; kinase still bound, per cent of control (PKN3 (M.tuberculosis)): 100%; kinase still bound, per cent of control (PRKD2 (human)): 59%; kinase still bound, per cent of control (PRKG1 (human)): 98%; kinase still bound, per cent of control [2]: 100%; kinase still bound, per cent of control (ROCK1 (human)): 100%; kinase still bound, per cent of control (RPS6KA1 KD1 (human)): 73%; kinase still bound, per cent of control (RPS6KA5 KD1 (human)): 96%; kinase still bound, per cent of control (SRPK1 (human)): 94%; kinase still bound, per cent of control (TBK1 (human)): 97%; kinase still bound, per cent of control (TEK (human)): 100%; kinase still bound, per cent of control (TLK1 (human)): 100%; kinase still bound, per cent of control (TNK1 (human)): 2.8%
CN(C)C/C=C/C(=O)Nc1ccc(C(=O)Nc2cccc(Nc3nccc(-c4cccnc4)n3)c2)cc1	100	5.5	28	100	52	100	92	95	100	97	94	100	100	29	62	100	79	100	1.3	23	kinase still bound, per cent of control (MAPK3 (human)): 100%; kinase still bound, per cent of control (MARK1 (human)): 70%; kinase still bound, per cent of control [1]: 100%; kinase still bound, per cent of control (MYO3A (human)): 73%; kinase still bound, per cent of control (NEK11 (human)): 100%; kinase still bound, per cent of control (NEK7 (human)): 9.8%; kinase still bound, per cent of control (NTRK1 (human)): 60%; kinase still bound, per cent of control (PAK6 (human)): 46%; kinase still bound, per cent of control (PKN3 (M.tuberculosis)): 84%; kinase still bound, per cent of control (PRKD2 (human)): 100%; kinase still bound, per cent of control (PRKG1 (human)): 100%; kinase still bound, per cent of control [2]: 70%; kinase still bound, per cent of control (ROCK1 (human)): 48%; kinase still bound, per cent of control (RPS6KA1 KD1 (human)): 91%; kinase still bound, per cent of control (RPS6KA5 KD1 (human)): 100%; kinase still bound, per cent of control (SRPK1 (human)): 26%; kinase still bound, per cent of control (TBK1 (human)): 38%; kinase still bound, per cent of control (TEK (human)): 94%; kinase still bound, per cent of control (TLK1 (human)): 92%; kinase still bound, per cent of control (TNK1 (human)): 20%
